This test concerns the target T1, recombinant human SYK360-635 (Homo sapiens, UniProt P43405).
T1 construct: made in house
The test is described as follows: Determination of IC50 of Spleen Tyrosine Kinase (SYK) inhibition, 33P ATP filtration assay. It is filed as biochemical. Conditions: SYK aa 360-635 0.5 nM; ATP 20 μM, peptide 5 μM, 0.1% BSA; read-out: SYK_ENZYME_FILTRATION/v1, BSA.
For `Cn1nc(-c2cnc3[nH]cc(C(=O)N[C@@H]4CCC[C@@H](N)C4)c3n2)c2ccc(Cl)cc21` (relative stereo) [Example I-276, 2-(6-Chloro-1-methyl-1H-indazol-3-yl)-5H-pyrrolo[2,3-b]pyrazine-7-carboxylic acid (trans-3-amino-cyclohexyl)-amide], the IC50 was determined as 16.4 nM.
`Cn1nc(-c2cnc3[nH]cc(C(=O)N[C@@H]4CCC[C@H](N)C4)c3n2)c2ccc(Cl)cc21` (relative stereo) [Example I-277, 2-(6-Chloro-1-methyl-1H-indazol-3-yl)-5H-pyrrolo[2,3-b]pyrazine-7-carboxylic acid (cis-3-amino-cyclohexyl)-amide]: the IC50 was found to be 40 nM.
The same measure for `C[C@@H](NC(=O)c1c[nH]c2ncc(-c3nn(C)c4cc(C#N)ccc34)nc12)C(=O)N1CC(C#N)C1` [Example I-22, 2-(6-Cyano-1-methyl-1H-indazol-3-yl)-5H-pyrrolo[2,3-b]pyrazine-7-carboxylic acid [(R)-2-(3-cyano-azetidin-1-yl)-1-methyl-2-oxo-ethyl]-amide]: 45.7 nM; for `C[C@@H](NC(=O)c1c[nH]c2ncc(-c3cn(C)c4cc(Cl)ccc34)nc12)C(=O)N1CC(C#N)C1` [Example I-29, 2-(6-Chloro-1-methyl-1H-indol-3-yl)-5H-pyrrolo[2,3-b]pyrazine-7-carboxylic acid [(R)-2-(3-cyano-azetidin-1-yl)-1-methyl-2-oxo-ethyl]-amide]: 4.1 nM.
In the case of `CC(C)NC(=O)c1c[nH]c2ncc(-c3nn(C)c4ccc(O)cc34)nc12` [Example I-65, 2-(5-Hydroxy-1-methyl-1H-indazol-3-yl)-5H-pyrrolo[2,3-b]pyrazine-7-carboxylic acid isopropylamide] it was 5.8 nM.
In the case of `COCC(COC)NC(=O)c1c[nH]c2ncc(-c3nn(C)c4cc(Cl)ccc34)nc12` [Example I-166, 2-(6-Chloro-1-methyl-1H-indazol-3-yl)-5H-pyrrolo[2,3-b]pyrazine-7-carboxylic acid (2-methoxy-1-methoxymethyl-ethyl)-amide] it was 106 nM; in that of `CC(CC1CC1)NC(=O)c1c[nH]c2ncc(-c3nn(C)c4cc(F)ccc34)nc12` (stereo not shown) [Example I-186, 2-(6-Fluoro-1-methyl-1H-indazol-3-yl)-5H-pyrrolo[2,3-b]pyrazine-7-carboxylic acid (2-cyclopropyl-1-methyl-ethyl)-amide], 129 nM; in that of `COC[C@H](C)NC(=O)c1c[nH]c2ncc(-c3nn(C)c4ccc(C5CC5)cc34)nc12` [Example I-194, 2-(5-Cyclopropyl-1-methyl-1H-indazol-3-yl)-5H-pyrrolo[2,3-b]pyrazine-7-carboxylic acid ((S)-2-methoxy-1-methyl-ethyl)-amide], 11.9 nM.
As for `CC(C)NC(=O)c1c[nH]c2ncc(-c3nn(C)c4ccc(C5CC5)cc34)nc12` [Example I-195, 2-(5-Cyclopropyl-1-methyl-1H-indazol-3-yl)-5H-pyrrolo[2,3-b]pyrazine-7-carboxylic acid isopropylamide], the IC50 was 12 nM.
In the case of `Cn1nc(-c2cnc3[nH]cc(C(=O)NC(C)(C)CO)c3n2)c2cc(C3CC3)ccc21` [Example I-196, 2-(5-Cyclopropyl-1-methyl-1H-indazol-3-yl)-5H-pyrrolo[2,3-b]pyrazine-7-carboxylic acid (2-hydroxy-1,1-dimethyl-ethyl)-amide] it was 8 nM.
In the case of `Cn1nc(-c2cnc3[nH]cc(C(=O)NC(C)(C)C)c3n2)c2cc(C3CC3)ccc21` [Example I-197, 2-(5-Cyclopropyl-1-methyl-1H-indazol-3-yl)-5H-pyrrolo[2,3-b]pyrazine-7-carboxylic acid tert-butylamide] it was 4.79 nM; in that of `CC(C)(C)NC(=O)c1c[nH]c2ncc(-c3nn(CC(=O)N4CCOCC4)c4cc(F)ccc34)nc12` [Example I-251, 2-[6-Fluoro-1-(2-morpholin-4-yl-2-oxo-ethyl)-1H-indazol-3-yl]-5H-pyrrolo[2,3-b]pyrazine-7-carboxylic acid tert-butylamide], 14.3 nM; in that of `Cn1nc(-c2cnc3[nH]cc(C(=O)NC4(C(C)(C)O)CCC4)c3n2)c2ccc(F)cc21` [Example I-255, 2-(6-Fluoro-1-methyl-1H-indazol-3-yl)-5H-pyrrolo[2,3-b]pyrazine-7-carboxylic acid [1-(1-hydroxy-1-methyl-ethyl)-cyclobutyl]-amide], 607 nM.
In the case of `Cn1nc(-c2cnc3[nH]cc(C(=O)NC4(CO)CCC4)c3n2)c2ccc(F)cc21` [Example I-256, 2-(6-Fluoro-1-methyl-1H-indazol-3-yl)-5H-pyrrolo[2,3-b]pyrazine-7-carboxylic acid (1-hydroxymethyl-cyclobutyl)-amide] it was 23.5 nM; in that of `CC(C)(C)NC(=O)c1c[nH]c2ncc(-c3nn(C4CCNC4)c4cc(F)ccc34)nc12` (stereo not shown) [Example I-258, 2-(6-Fluoro-1-pyrrolidin-3-yl-1H-indazol-3-yl)-5H-pyrrolo[2,3-b]pyrazine-7-carboxylic acid tert-butylamide], 24.6 nM; in that of `Cn1nc(-c2cnc3[nH]cc(C(=O)NC(C)(C)C)c3n2)c2ncccc21` [Example I-259, 2-(1-Methyl-1H-pyrazolo[4,3-b]pyridin-3-yl)-5H-pyrrolo[2,3-b]pyrazine-7-carboxylic acid tert-butylamide], 42.9 nM.
For the compound `Cn1nc(-c2cnc3[nH]cc(C(=O)NC(C)(C)C)c3n2)c2cc(C#N)ccc21` [Example I-260, 2-(5-Cyano-1-methyl-1H-indazol-3-yl)-5H-pyrrolo[2,3-b]pyrazine-7-carboxylic acid tert-butylamide], the IC50 is 6.85 nM.
As to `CC(C)(C)NC(=O)c1c[nH]c2ncc(-c3nn(C4CCNCC4)c4ccc(OC(F)F)cc34)nc12` [Example I-261, 2-(5-Difluoromethoxy-1-piperidin-4-yl-1H-indazol-3-yl)-5H-pyrrolo[2,3-b]pyrazine-7-carboxylic acid tert-butylamide], the IC50 was determined as 1.83 nM.
The same measure for `CC(C)(C)NC(=O)c1c[nH]c2ncc(-c3nn(CCCC(=O)O)c4ccc(OC(F)F)cc34)nc12` [Example I-262, 4-[3-(7-tert-Butylcarbamoyl-5H-pyrrolo[2,3-b]pyrazin-2-yl)-5-difluoromethoxy-indazol-1-yl]-butyric acid]: 2.75 nM; for `CN1CCC(n2nc(-c3cnc4[nH]cc(C(=O)NC(C)(C)C)c4n3)c3cc(OC(F)F)ccc32)CC1` [Example I-263, 2-[5-Difluoromethoxy-1-(1-methyl-piperidin-4-yl)-1H-indazol-3-yl]-5H-pyrrolo[2,3-b]pyrazine-7-carboxylic acid tert-butylamide]: 14.4 nM.
The same measure for `CC(C)(C)NC(=O)c1c[nH]c2ncc(-c3nn(Cc4cccnc4)c4ccc(OC(F)F)cc34)nc12` [Example I-264, 2-(5-Difluoromethoxy-1-pyridin-3-ylmethyl-1H-indazol-3-yl)-5H-pyrrolo[2,3-b]pyrazine-7-carboxylic acid tert-butylamide]: 4.67 nM; for `CC(C)(C)NC(=O)c1c[nH]c2ncc(-c3nn(CC4CCNC4)c4ccc(OC(F)F)cc34)nc12` (stereo not shown) [Example I-265, 2-(5-Difluoromethoxy-1-pyrrolidin-3-ylmethyl-1H-indazol-3-yl)-5H-pyrrolo[2,3-b]pyrazine-7-carboxylic acid tert-butylamide]: 8.62 nM; for `NC1CCC(NC(=O)c2c[nH]c3ncc(-c4nn(C5CCNCC5)c5cc(F)ccc45)nc23)C1` (stereo not shown) [Example I-267, 2-(6-Fluoro-1-piperidin-4-yl-1H-indazol-3-yl)-5H-pyrrolo[2,3-b]pyrazine-7-carboxylic acid (3-amino-cyclopentyl)-amide]: 30.3 nM.
With `CC(C)NC(=O)c1c[nH]c2ncc(-c3nn(C)c4ccc(C(C)O)cc34)nc12` (stereo not shown) [Example I-269, 2-[5-(1-Hydroxy-ethyl)-1-methyl-1H-indazol-3-yl]-5H-pyrrolo[2,3-b]pyrazine-7-carboxylic acid isopropylamide], the IC50 amounted to 22.1 nM.
The same measure for `Cn1nc(-c2cnc3[nH]cc(C(=O)NC(C)(C)C)c3n2)c2ccc(S(C)(=O)=O)cc21` [Example I-270, 2-(6-Methanesulfonyl-1-methyl-1H-indazol-3-yl)-5H-pyrrolo[2,3-b]pyrazine-7-carboxylic acid tert-butylamide]: 16.4 nM.
Turning to `Cn1nc(-c2cnc3[nH]cc(C(=O)N[C@H]4C[C@@H](N)C4)c3n2)c2ccc(F)cc21` [Example I-271, 2-(6-Fluoro-1-methyl-1H-indazol-3-yl)-5H-pyrrolo[2,3-b]pyrazine-7-carboxylic acid (cis-3-amino-cyclobutyl)-amide], the IC50 stood at 30.3 nM.
Consider `Cn1nc(-c2cnc3[nH]cc(C(=O)NC(C)(C)C)c3n2)c2c1CCCCC2` [Example I-272, 2-(1-Methyl-1,4,5,6,7,8-hexahydro-cycloheptapyrazol-3-yl)-5H-pyrrolo[2,3-b]pyrazine-7-carboxylic acid tert-butylamide], for which the IC50 was 75.3 nM.
In the case of `Cn1cc(Cn2nc(-c3cnc4[nH]cc(C(=O)NC(C)(C)C)c4n3)c3cc(OC(F)F)ccc32)cn1` [Example I-274, 2-[5-Difluoromethoxy-1-(1-methyl-1H-pyrazol-4-ylmethyl)-1H-indazol-3-yl]-5H-pyrrolo[2,3-b]pyrazine-7-carboxylic acid tert-butylamide] it was 2.5 nM; in that of `CC(C)NC(=O)c1c[nH]c2ncc(-c3nn(C)c4c3CCC(C)(C)C4)nc12` [Example I-279, 2-(1,6,6-Trimethyl-4,5,6,7-tetrahydro-1H-indazol-3-yl)-5H-pyrrolo[2,3-b]pyrazine-7-carboxylic acid isopropylamide], 277 nM.
With `COc1ccc2c(c1)c(-c1cnc3[nH]cc(C(=O)NC(C)(C)C)c3n1)nn2C` [Example I-287, 2-(5-Methoxy-1-methyl-1H-indazol-3-yl)-5H-pyrrolo[2,3-b]pyrazine-7-carboxylic acid tert-butylamide], the IC50 is 3.22 nM.
As to `COc1ccc2c(c1)c(-c1cnc3[nH]cc(C(=O)NC(C)(C)CO)c3n1)nn2C` [Example I-288, 2-(5-Methoxy-1-methyl-1H-indazol-3-yl)-5H-pyrrolo[2,3-b]pyrazine-7-carboxylic acid (2-hydroxy-1,1-dimethyl-ethyl)-amide], the IC50 is 7.95 nM.

Values taken from US8658646B2, “Pyrrolopyrazine kinase inhibitors” (Hoffmann-LaRoche Inc., priority 2011, dated 2014).
